Activity calls are given as the source filed them. The rule behind the calls is not given here.

In the data set the test system is CCRIS mutagenicity, Ames/micronucleus/aberration tests. Description: CCRIS mutagenicity studies.
The mark [1] stands for this setting: Test System: AMES SALMONELLA TYPHIMURIUM, Strain/Indicator: TA98, Metabolic Activation: HAMSTER, LIVER, S-9, AROCLOR 1254 (10%), Method: PREINCUBATION
Where [2] appears, read: Test System: AMES SALMONELLA TYPHIMURIUM, Strain/Indicator: TA98, Metabolic Activation: RAT, LIVER, S-9, AROCLOR 1254 (10%), Method: PREINCUBATION
Where [3] appears, read: Test System: AMES SALMONELLA TYPHIMURIUM, Strain/Indicator: TA100, Metabolic Activation: HAMSTER, LIVER, S-9, AROCLOR 1254 (10%), Method: PREINCUBATION
Where [4] appears, read: Test System: AMES SALMONELLA TYPHIMURIUM, Strain/Indicator: TA1535, Metabolic Activation: HAMSTER, LIVER, S-9, AROCLOR 1254 (10%), Method: PREINCUBATION
Setting [5] is: Test System: AMES SALMONELLA TYPHIMURIUM, Strain/Indicator: TA1535, Metabolic Activation: NONE, Method: PREINCUBATION
Setting [6] is: Test System: AMES SALMONELLA TYPHIMURIUM, Strain/Indicator: TA1535, Metabolic Activation: RAT, LIVER, S-9, AROCLOR 1254 (10%), Method: PREINCUBATION
Setting [7] is: Test System: AMES SALMONELLA TYPHIMURIUM, Strain/Indicator: TA1537, Metabolic Activation: NONE, Method: PREINCUBATION
Where [8] appears, read: Test System: AMES SALMONELLA TYPHIMURIUM, Strain/Indicator: TA100, Metabolic Activation: NONE, Method: STANDARD PLATE.
Setting [9] is: Test System: AMES SALMONELLA TYPHIMURIUM, Strain/Indicator: TA98, Metabolic Activation: NONE, Method: PREINCUBATION
The mark [10] stands for this setting: Test System: AMES SALMONELLA TYPHIMURIUM, Strain/Indicator: TA100, Metabolic Activation: NONE, Method: PREINCUBATION
The mark [11] stands for this setting: Test System: AMES SALMONELLA TYPHIMURIUM, Strain/Indicator: TA100, Metabolic Activation: RAT, LIVER, S-9, AROCLOR 1254 (10%), Method: PREINCUBATION
Setting [12] is: Test System: AMES SALMONELLA TYPHIMURIUM, Strain/Indicator: TA1537, Metabolic Activation: HAMSTER, LIVER, S-9, AROCLOR 1254 (10%), Method: PREINCUBATION
[13] abbreviates: Test System: AMES SALMONELLA TYPHIMURIUM, Strain/Indicator: TA1537, Metabolic Activation: RAT, LIVER, S-9, AROCLOR 1254 (10%), Method: PREINCUBATION
The mark [14] stands for this setting: Test System: AMES SALMONELLA TYPHIMURIUM, Strain/Indicator: TA98, Metabolic Activation: NONE, Method: STANDARD PLATE.

For `O=[N+]([O-])c1cccc(O)c1`, the mutagenic call is, setting by setting: (Test System: AMES SALMONELLA TYPHIMURIUM, Strain/Indicator: TA97, Metabolic Activation: HAMSTER, LIVER, S-9, AROCLOR 1254 (10%), Method: PREINCUBATION) “inactive; negative”; (Test System: AMES SALMONELLA TYPHIMURIUM, Strain/Indicator: TA97, Metabolic Activation: NONE, Method: PREINCUBATION) “inactive; negative”; (Test System: AMES SALMONELLA TYPHIMURIUM, Strain/Indicator: TA97, Metabolic Activation: RAT, LIVER, S-9, AROCLOR 1254 (10%), Method: PREINCUBATION) “inactive; negative”; under setting [1], “inactive; negative”; under setting [2], “inactive; negative”; (Test System: AMES SALMONELLA TYPHIMURIUM, Strain/Indicator: TA98, Metabolic Activation: RAT, LIVER, S-9, KANECHLOR 500, Method: PREINCUBATION) “active; positive”. Moreover, the mutagenic call (Test System: AMES SALMONELLA TYPHIMURIUM, Strain/Indicator: TA98, Method: PREINCUBATION) is “inactive; negative”; the mutagenic call under setting [3] is “inactive; negative”; the mutagenic call (Test System: AMES SALMONELLA TYPHIMURIUM, Strain/Indicator: TA100, Metabolic Activation: RAT, LIVER, S-9, AROCLOR 1254 (5, 10 OR 30%), Method: PREINCUBATION) is “inactive; negative”; the mutagenic call (Test System: AMES SALMONELLA TYPHIMURIUM, Strain/Indicator: TA100, Metabolic Activation: RAT, LIVER, S-9, KANECHLOR 500, Method: PREINCUBATION) is “active; positive”; the mutagenic call (Test System: AMES SALMONELLA TYPHIMURIUM, Strain/Indicator: TA100, Method: PREINCUBATION) is “inactive; negative”; the mutagenic call under setting [4] is “inactive; negative”. Also, the mutagenic call reads like this: under setting [5], “inactive; negative”; under setting [6], “inactive; negative”; (Test System: AMES SALMONELLA TYPHIMURIUM, Strain/Indicator: TA1535, Method: PREINCUBATION) “inactive; negative”; under setting [7], “inactive; negative”; (Test System: AMES SALMONELLA TYPHIMURIUM, Strain/Indicator: TA1537, Method: PREINCUBATION) “inactive; negative”; (Test System: AMES SALMONELLA TYPHIMURIUM, Strain/Indicator: TA1538, Metabolic Activation: NONE, Method: PREINCUBATION) “inactive; negative”. Also, the mutagenic call (Test System: AMES SALMONELLA TYPHIMURIUM, Strain/Indicator: TA1538, Method: PREINCUBATION) is “inactive; negative”.

Regarding `O=C(ON(OCc1ccccc1)C(=O)c1ccccc1)c1ccc([N+](=O)[O-])cc1`, the mutagenic call was “active; positive” under setting [8] and “active; positive” (Test System: AMES SALMONELLA TYPHIMURIUM, Strain/Indicator: TA100, Metabolic Activation: RAT, S-9, AROCLOR, Method: STANDARD PLATE).

With `O=[N+]([O-])c1ccc(NCCO)c(OCCO)c1`, the mutagenic call was “active; positive” under setting [1]; “active; positive” under setting [9]; “active; positive” under setting [2]; “active; positive” under setting [3]; “active; positive” under setting [10]; “active; positive” under setting [11]. In addition, the mutagenic call is “inactive; negative” under setting [4]; “active; positive” under setting [5]; “inactive; negative” under setting [6]; “active; positive” under setting [12]; “active; positive” under setting [7]; “active; positive” under setting [13].

In the case of `CC(C)=CCC[C@@](C)(O)[C@H]1CCC=CC1=O`, the mutagenic call was “active; positive” (Test System: AMES SALMONELLA TYPHIMURIUM, Strain/Indicator: TM677, Metabolic Activation: NONE, Method: STANDARD PLATE) and “active; positive” (Test System: AMES SALMONELLA TYPHIMURIUM, Strain/Indicator: TM677, Metabolic Activation: RAT, LIVER, S-9, AROCLOR 1254, Method: STANDARD PLATE).

With `O=C1C=C2C(=CCOC2O)O1` (configuration not stated), the mutagenic call by setting is: (End Point: In vitro micronucleus, Test System: Human hepatoma HepG2 cells, Metabolic Activation: None) “active; positive. depletion of glutathione increased patulin-induced micronuclei frequen”; (Test System: AMES SALMONELLA TYPHIMURIUM, Strain/Indicator: TA98, Metabolic Activation: RAT, LIVER, MICROSOMES, PHENOBARBITAL, Method: STANDARD PLATE) “inactive; negative”; under setting [10], “inactive; negative”; (Test System: AMES SALMONELLA TYPHIMURIUM, Strain/Indicator: TA100, Metabolic Activation: RAT, LIVER, MICROSOMES, PHENOBARBITAL, Method: STANDARD PLATE) “inactive; negative”; (Test System: AMES SALMONELLA TYPHIMURIUM, Strain/Indicator: TA100, Metabolic Activation: RAT, LIVER, S-9, PHENOBARBITAL, Method: PREINCUBATION) “inactive; negative”; (Test System: AMES SALMONELLA TYPHIMURIUM, Strain/Indicator: TA102, Metabolic Activation: NONE, Method: STANDARD PLATE) “inactive; negative”. In addition, the mutagenic call (Test System: AMES SALMONELLA TYPHIMURIUM, Strain/Indicator: TA102, Metabolic Activation: RAT, LIVER, S-9, AROCLOR 1254, Method: STANDARD PLATE) is “inactive; negative”.

Turning to `COc1ccc(N=Nc2ccc(N(C)C)cc2)cc1`, the mutagenic call was “active; positive” under setting [14]; “active; positive” (Test System: AMES SALMONELLA TYPHIMURIUM, Strain/Indicator: TA98, Metabolic Activation: RAT LIVER S-9, AROCLOR 1254, Method: STANDARD PLATE); “active; positive” (Test System: AMES SALMONELLA TYPHIMURIUM, Strain/Indicator: TA1538, Metabolic Activation: NONE, Method: STANDARD PLATE); “active; positive” (Test System: AMES SALMONELLA TYPHIMURIUM, Strain/Indicator: TA1538, Metabolic Activation: RAT LIVER S-9, AROCLOR 1254, Method: STANDARD PLATE).

Regarding `COC(=O)c1ccc([N+](=O)[O-])c2c(NCCCN(C)C)c3ccccc3nc12`, the mutagenic call by setting is: under setting [14], “active; positive”; under setting [8], “active; positive”.

For the compound `CON`, the mutagenic call is “inactive; negative” under setting [1]; “inactive; negative” under setting [9]; “inactive; negative” under setting [2]; “inactive; negative” under setting [3]; “inactive; negative” under setting [10]; “inactive; negative” under setting [11]. Moreover, the mutagenic call is “inactive; negative” under setting [4]; “inactive; negative” under setting [5]; “inactive; negative” under setting [6]; “inactive; negative” under setting [12]; “inactive; negative” under setting [7]; “inactive; negative” under setting [13].

For the compound `OC/C=C/Cl`, the mutagenic call is, setting by setting: under setting [8], “inactive; negative”; (Test System: AMES SALMONELLA TYPHIMURIUM, Strain/Indicator: TA100, Metabolic Activation: RAT, LIVER, S-9, PCB, Method: STANDARD PLATE) “active; positive”.

These data come from PubChem BioAssay AID1259407 (Chemical Carcinogenesis Research Information System (CCRIS), 2018).
